Measurements published in patent publication EP4574151A1, “INHIBITORS OF G12V-MUTATED RAS PROTEIN TO TREAT CANCER” (Personather Spolka Z Ograniczona Odpowiedzialnoscia, priority 2023, dated 2025).
“Also recorded” adds a separate entry of the source.

What was measured:
NCI-H1975 = assay: Toxicity against cancer cells expressing wild type RAS; assay type: cell-based; conditions: summary statement
Description: The results of in vitro analyses were presented in the examples. Commercially available cancer cell lines were used for the studies, including SW480, SW620, and COR-L23, showing endogenous expression of KRASG12V, as well as a cell line with exogenously introduced KRASG12V mutation (using methods of genetic engineering) - the DK-MGEGFRvIIIKRASG12V line. Additionally, the cancer cell line NCI- H1975, characterized by the expression of wild type RASWT proteins, was also analyzed.

BALB/c mice = assay: Acute toxicity after oral administration (Acute Toxicity test TG425); assay type: in vivo; conditions: female BALB/c mice, oral by gastric probe, 40 mg of substance in corn oil, three mice, observed two weeks
Description: The study was planned according to Acute Toxicity Test 425 (oral administration) - higher-lower-dose procedure, in accordance with the OECD regulation of October 3, 2008. The test procedure described in these guidelines is useful in minimizing the number of animals needed to estimate the acute toxicity after oral administration of potential drugs. In addition to the LD50 assessment and confidence intervals, the test allows for the observation of signs of toxicity. For this purpose, an experiment was agreed upon with the Local Ethics Committee for Animal Experimentation, using BALB/c mice. The TG425 method allows for the estimation of LD50 values with confidence intervals, and the results allow for the classification of substances according to the global harmonized system for the classification of chemicals that cause acute toxicity.
A sequential test, utilizing a maximum of 5 animals, was applied, which is known as the limit test. A test dose of either 2000 or uniquely 5000 mg/kg can be used. The testing procedures at 2000 and 5000 mg/kg differ slightly (see Sections 23-25 for the limit test at 2000 mg/kg and Sections 26-30 for the limit test at 5000 mg/kg). The selection of a sequential testing plan increases the statistical power, and a deliberate deviation from the limit test rejection procedure was made for compounds with an LD50 near the limit dose; i.e. committing an error on the side of caution. As with any limit test protocol, the probability of correct compound classification will decrease, as the actual LD50 value more closely resembles the limit dose.
• 1. Female Balb/c mice, which were 50-56 days postpartum, were used for the purposes of this experiment. • 2. Mice underwent a 1-week quarantine after being transported to the laboratory. • 3. The studied molecules (PER154A, PER160A, PER170A, PER176A) were suspended according to the TG425 protocol, i.e. 40 mg of substance in […] of laboratory corn oil and orally administered through a plastic gastro probe (used: 20ga (0.9 mm OD x 0.5 mm ID), 38 mm), which was suitable for the size of the animal (17-21 g). The mice were observed and weighed almost daily. • 4. Mouse housing conditions: up to 4 mice per cage; temperature: 23.2 - 23.40°C; humidity: 27.6 - 40.9% relative humidity. • 5. Two weeks later (time counted separately for each mouse), a resection was performed to analyze internal organs for any abnormalities.

SW480 cell line = assay: Western Blot analysis of the RAS-controlled signal transduction pathway in a cancer cell line expressing KRASG12V; assay type: cell-based; conditions: SW480 cell line with RASG12V mutation; 1, 5 and 10 µM; 24 hours; serum-free
Description: Analysis of the impact of the tested compound on the signal transduction pathway controlled by RAS family proteins in cancer cell lines expressing KRASG12V based on the Western Blot method.
The example illustrates the impact of the PER154A and PER160A molecules on the signal transduction pathway in the cancer cell line SW480.
• 1. SW480 cell line at 80-90% confluence was rinsed with PBS without Mg2+ and Ca2+ ions. Remove PBS. • 2. Cells were detached from the vessel using Trypsin-EDTA (0.05%, 1x) for 1-3 minutes at 37°C. • 3. Cells were transferred to a 15 ml tube, centrifuged (200xg, 4 min) and suspended in DMEM High Glucose (HG) medium with 10% bovine serum and antibiotics. • 4. Cells were counted. • 5. 5x10^5 cells were added to each well of a 6-well plate for adherent culture. • 6. The above medium was replenished and left for approximately 24 hours.
• 7. Cells were washed 2-3 times with buffered saline solution without Mg2+ and Ca2+ ions. PBS was carefully removed each time. • 8. 2 ml of DMEM HG medium with antibiotics and without serum was added, left for approximately 24 hours.
• 9. The cells were washed 2-3 times with buffered saline without Mg2+ and Ca2+ ions. PBS was carefully removed each time. • 10. […]

| SMILES | toxicity against cancer cells expressing normal RAS protein (NCI-H1975) | safety in acute oral toxicity test (BALB/c mice) | impact on downstream signal transduction pathways in relation to RASG12V (AKT, ERK phosphorylation) (SW480 cell line) |
| --- | --- | --- | --- |
| O=C(Nc1ccc(F)cc1)c1ccc2c(c1)C1C3CCC(C3)C1C(c1ccccc1)N2 (stereo not drawn) [PER160A] | no toxicity | safe for mice | Significant impact; also recorded: blocks |
| O=C(Nc1ccc2c(c1)OCCO2)c1ccc2c(c1)C1C3CCC(C3)C1C(c1ccccc1)N2 (stereo not drawn) [PER154A] | no toxicity | safe and safe for mice | Significant impact; also recorded: blocks |
